Active and inactive are the calls of the source. The calls are words filed in the database; no cut-off is given here.
Assays:
[1] = test system: Leishmania amazonensis; test: Antileishmanial activity against Leishmania amazonensis MHOM/BR/1973/M2269 promastigotes assessed as reduction in cell viability at 100 uM after 72 hrs by trypan blue dye based Neubauer chamber method; assay type: functional, organism-based
[2] = test system: Leishmania amazonensis; test: Antileishmanial activity against Leishmania amazonensis MHOM/BR/1973/M2269 promastigotes assessed as reduction in cell viability incubated up to 72 hrs by trypan blue dye based Neubauer chamber method; assay type: functional, organism-based; settings: MHOM/BR/1973/M2269, 72 h
[3] = target: Arginase (Leishmania amazonensis, UniProt O96394); test: Competitive inhibition of Leishmania amazonensis arginase assessed as inhibition constant for enzyme-inhibitor complex using L-arginine as substrate incubated for 15 mins by Dixon plot analysis
[4] = test system: Leishmania donovani; test: Antileishmanial activity against Leishmania donovani axenic amastigotes after 72 hrs by alamar blue assay; assay type: functional, organism-based

Ki [3]: 0.7 µM
Compound: C[C@@H]1O[C@@H](O[C@@H]2[C@@H](O)[C@H](OCCc3ccc(O)c(O)c3)O[C@H](CO)[C@H]2OC(=O)/C=C/c2ccc(O)c(O)c2)[C@H](O)[C@H](O)[C@H]1O [ACETOSIDE]
Activity [1]: Active
EC50 [2]: 19 µM
EC50 [4]: 14 µM
